Data on 19 molecules can be found in ChEMBL document CHEMBL3593193, “Discovery of 3,6-dihydroimidazo[4,5-d]pyrrolo[2,3-b]pyridin-2(1H)-one derivatives as novel JAK inhibitors” (Bioorg Med Chem, 2015).

In series [1] the target is Tyrosine-protein kinase JAK1 (Homo sapiens, UniProt P23458).
Description: Inhibition of human JAK1 kinase domain using biotin-Lyn-substrate-2 as substrate and ATP incubated for 1 hr by ELISA method
In series [2] the target is T1, Tyrosine-protein kinase JAK3 (Homo sapiens, UniProt P52333).
T1 sequence (P52333 whole entry): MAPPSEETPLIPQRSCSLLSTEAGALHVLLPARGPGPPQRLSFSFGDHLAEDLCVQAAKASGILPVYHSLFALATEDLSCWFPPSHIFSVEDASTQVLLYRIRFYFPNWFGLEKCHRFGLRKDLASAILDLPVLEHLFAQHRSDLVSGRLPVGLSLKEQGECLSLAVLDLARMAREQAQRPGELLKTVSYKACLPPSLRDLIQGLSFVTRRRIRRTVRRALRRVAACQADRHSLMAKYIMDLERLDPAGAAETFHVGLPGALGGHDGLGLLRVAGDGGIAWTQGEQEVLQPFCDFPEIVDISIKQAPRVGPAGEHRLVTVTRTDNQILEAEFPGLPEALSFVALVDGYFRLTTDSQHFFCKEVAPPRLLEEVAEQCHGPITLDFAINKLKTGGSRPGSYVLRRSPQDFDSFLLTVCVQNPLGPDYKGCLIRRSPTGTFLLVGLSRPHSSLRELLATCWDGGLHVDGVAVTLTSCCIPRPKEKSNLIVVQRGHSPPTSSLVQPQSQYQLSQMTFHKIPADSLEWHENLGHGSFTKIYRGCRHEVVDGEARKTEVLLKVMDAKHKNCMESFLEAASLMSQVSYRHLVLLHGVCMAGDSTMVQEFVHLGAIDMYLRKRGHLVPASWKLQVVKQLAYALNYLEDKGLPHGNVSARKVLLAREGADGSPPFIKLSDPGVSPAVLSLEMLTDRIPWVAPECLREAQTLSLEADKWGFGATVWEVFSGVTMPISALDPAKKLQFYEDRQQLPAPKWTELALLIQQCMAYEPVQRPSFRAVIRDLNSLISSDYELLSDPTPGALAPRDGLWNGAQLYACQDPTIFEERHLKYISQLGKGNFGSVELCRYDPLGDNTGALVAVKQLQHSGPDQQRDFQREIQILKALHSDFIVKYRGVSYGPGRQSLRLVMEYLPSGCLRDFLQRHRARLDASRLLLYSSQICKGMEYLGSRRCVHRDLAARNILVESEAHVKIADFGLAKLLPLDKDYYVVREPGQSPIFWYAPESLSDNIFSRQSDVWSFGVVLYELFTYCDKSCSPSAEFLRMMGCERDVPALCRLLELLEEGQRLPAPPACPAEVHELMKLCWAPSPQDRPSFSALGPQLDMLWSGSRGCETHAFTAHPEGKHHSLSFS
Description: Inhibition of human JAK3 kinase domain using biotin-Lyn-substrate-2 as substrate and ATP incubated for 1 hr by ELISA method

Series [3] concerns the target Tyrosine-protein kinase JAK2 (Homo sapiens, UniProt O60674).
Description: Inhibition of human JAK2 kinase domain using biotin-Lyn-substrate-2 as substrate and ATP incubated for 1 hr by ELISA method
A further series is described as follows: cells. As to conditions: Rattus norvegicus, Lewis, T-cell, 72 h.
A further series in a line: in vitro. The following applies: Sprague-Dawley, rat, liver microsomes.
Series [4] deals with T2, CYP3A4 (Homo sapiens, UniProt P08684). The series can be described thus: Time dependent inhibition of CYP3A4 in human liver microsomes assessed as remaining enzyme activity by measuring midazolam to 1'-hydroxymidazolam conversion at 5 uM pre-incubated for 30 mins before midazolam addition by LC-MS/MS method. Type of series: ADME. As to conditions: probe midazolam (conversion to 1'-hydroxymidazolam), read-out: Activity.

Series [5] concerns the target T2, CYP3A4. The experiment in a line: Reversible inhibition of CYP3A4 in human liver microsomes assessed as remaining enzyme activity by measuring midazolam to 1'-hydroxymidazolam conversion at 5 uM pre-incubated for 30 mins before midazolam addition by LC-MS/MS method. Type of series: ADME. As to conditions: probe midazolam (conversion to 1'-hydroxymidazolam), read-out: Activity. In general terms: Liver microsomes are a subcellular fraction often used to study metabolism.

The subject of a further series is Liver microsome. As to conditions: rat, microsomes, 0.5 h, 2 µM.

SMILES strings stand for the structures. A value given as a limit tells only on which side of the number the result lay.

Sequence of Tyrosine-protein kinase JAK2 (O60674 whole entry): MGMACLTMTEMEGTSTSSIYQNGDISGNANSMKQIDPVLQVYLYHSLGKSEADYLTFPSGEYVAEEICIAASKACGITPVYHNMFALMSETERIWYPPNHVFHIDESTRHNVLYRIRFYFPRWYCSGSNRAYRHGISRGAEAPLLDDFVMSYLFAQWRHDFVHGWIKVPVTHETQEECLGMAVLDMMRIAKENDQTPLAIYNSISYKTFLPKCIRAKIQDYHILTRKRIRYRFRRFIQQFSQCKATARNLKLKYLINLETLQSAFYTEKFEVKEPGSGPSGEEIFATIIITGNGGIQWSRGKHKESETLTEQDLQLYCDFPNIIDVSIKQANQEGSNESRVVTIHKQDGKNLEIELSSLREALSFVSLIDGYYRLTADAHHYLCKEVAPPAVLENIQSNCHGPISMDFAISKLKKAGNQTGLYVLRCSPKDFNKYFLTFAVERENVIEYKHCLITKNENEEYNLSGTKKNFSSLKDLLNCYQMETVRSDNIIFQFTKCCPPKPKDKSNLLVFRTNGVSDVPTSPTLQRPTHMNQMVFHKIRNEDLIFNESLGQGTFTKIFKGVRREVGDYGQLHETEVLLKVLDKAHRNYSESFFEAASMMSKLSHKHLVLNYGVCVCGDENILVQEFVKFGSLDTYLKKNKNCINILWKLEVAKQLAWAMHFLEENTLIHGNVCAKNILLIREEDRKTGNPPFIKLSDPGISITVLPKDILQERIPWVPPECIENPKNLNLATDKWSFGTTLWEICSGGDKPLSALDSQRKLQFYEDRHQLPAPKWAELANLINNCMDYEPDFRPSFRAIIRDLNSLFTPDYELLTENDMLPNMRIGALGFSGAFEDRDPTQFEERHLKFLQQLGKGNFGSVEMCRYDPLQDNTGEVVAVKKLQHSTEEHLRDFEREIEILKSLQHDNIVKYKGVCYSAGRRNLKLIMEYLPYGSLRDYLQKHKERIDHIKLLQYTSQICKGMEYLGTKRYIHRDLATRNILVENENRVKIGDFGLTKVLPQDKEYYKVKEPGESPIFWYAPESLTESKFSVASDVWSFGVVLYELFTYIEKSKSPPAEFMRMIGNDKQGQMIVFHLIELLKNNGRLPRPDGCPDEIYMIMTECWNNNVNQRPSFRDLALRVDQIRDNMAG
Sequence of Tyrosine-protein kinase JAK1 (P23458 whole entry): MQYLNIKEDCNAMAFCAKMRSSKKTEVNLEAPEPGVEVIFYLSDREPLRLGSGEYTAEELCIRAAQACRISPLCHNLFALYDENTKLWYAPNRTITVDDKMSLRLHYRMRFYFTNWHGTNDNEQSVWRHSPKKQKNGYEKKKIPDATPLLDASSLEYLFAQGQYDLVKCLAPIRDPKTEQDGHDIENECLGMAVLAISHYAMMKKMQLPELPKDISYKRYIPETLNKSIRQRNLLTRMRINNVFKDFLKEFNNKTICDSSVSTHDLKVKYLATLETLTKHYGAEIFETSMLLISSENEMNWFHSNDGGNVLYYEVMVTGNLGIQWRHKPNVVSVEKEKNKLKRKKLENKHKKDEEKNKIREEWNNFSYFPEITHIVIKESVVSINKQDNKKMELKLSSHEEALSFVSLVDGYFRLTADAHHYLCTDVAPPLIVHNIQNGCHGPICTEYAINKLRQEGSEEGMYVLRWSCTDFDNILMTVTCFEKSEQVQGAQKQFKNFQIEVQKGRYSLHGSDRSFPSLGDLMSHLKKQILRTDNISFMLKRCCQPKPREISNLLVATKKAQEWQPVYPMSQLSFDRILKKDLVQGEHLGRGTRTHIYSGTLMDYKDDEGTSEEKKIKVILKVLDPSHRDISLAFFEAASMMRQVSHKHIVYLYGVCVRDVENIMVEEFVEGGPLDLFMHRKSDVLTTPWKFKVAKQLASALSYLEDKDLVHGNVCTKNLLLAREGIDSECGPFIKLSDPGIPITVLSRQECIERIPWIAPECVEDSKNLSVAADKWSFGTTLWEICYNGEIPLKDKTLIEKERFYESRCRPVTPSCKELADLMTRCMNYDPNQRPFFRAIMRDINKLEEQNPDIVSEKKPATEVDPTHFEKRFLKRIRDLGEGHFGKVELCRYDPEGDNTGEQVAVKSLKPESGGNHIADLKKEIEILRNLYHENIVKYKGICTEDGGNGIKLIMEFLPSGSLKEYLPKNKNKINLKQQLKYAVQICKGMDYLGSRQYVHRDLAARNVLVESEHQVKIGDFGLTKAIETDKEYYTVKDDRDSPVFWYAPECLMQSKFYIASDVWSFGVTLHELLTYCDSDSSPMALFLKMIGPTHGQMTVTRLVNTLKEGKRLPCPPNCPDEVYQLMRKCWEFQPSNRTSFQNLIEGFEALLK
T2 sequence (P08684 whole entry): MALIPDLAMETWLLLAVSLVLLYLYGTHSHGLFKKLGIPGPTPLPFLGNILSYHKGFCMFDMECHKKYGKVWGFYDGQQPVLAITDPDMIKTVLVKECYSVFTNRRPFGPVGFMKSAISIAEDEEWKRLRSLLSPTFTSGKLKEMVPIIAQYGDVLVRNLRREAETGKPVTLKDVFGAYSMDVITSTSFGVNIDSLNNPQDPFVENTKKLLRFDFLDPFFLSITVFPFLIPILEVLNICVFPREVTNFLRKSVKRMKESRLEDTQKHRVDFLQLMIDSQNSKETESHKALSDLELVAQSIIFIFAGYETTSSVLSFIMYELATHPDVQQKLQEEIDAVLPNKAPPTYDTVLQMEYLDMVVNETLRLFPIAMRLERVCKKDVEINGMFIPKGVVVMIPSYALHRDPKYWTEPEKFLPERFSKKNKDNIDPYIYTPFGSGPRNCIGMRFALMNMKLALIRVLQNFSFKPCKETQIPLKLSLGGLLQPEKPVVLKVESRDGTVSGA
Description for cells: Inhibition of JAK1/JAK3 in Lewis rat splenocytes assessed as reduction in IL2-induced T cell proliferation incubated for 3 days by alamar blue assay

`CN(c1ccnc2[nH]ccc12)C1CCCCC1`: the IC50 in series [1] was found to be 2.9 µM; in series [2] it was 1.1 µM; in series [3], 1.8 µM.
Turning to `O=c1[nH]c2cnc3[nH]ccc3c2n1C1CCCCC1`, the IC50 is 0.16 µM in “cells”, 0.079 µM in series [1], 0.054 µM in series [2] and 0.043 µM in series [3]. This molecule also returned a CLint scaled at 0.5 h, 2 µM in the series “in vitro” of 9.18 L/h/kg.
Take `O=c1[nH]c2cnc3[nH]ccc3c2n1C1CCCC1`: the figures for the IC50 in series [1], in series [2] and in series [3] were 0.11 µM, 0.18 µM and 0.097 µM, respectively.
In the case of `O=c1[nH]c2cnc3[nH]ccc3c2n1CC1CCCCC1`, the IC50 in the series “cells” is 0.86 µM; in series [1], 1 µM; in series [2], 0.06 µM; in series [3], 0.088 µM. Also, the CLint scaled at 0.5 h, 2 µM in the series “in vitro” is 48.1 L/h/kg.
Take `C[C@@H]1CCCC[C@@H]1n1c(=O)[nH]c2cnc3[nH]ccc3c21`: the activity at 30 min, 5 µM on CYP3A4 [4] is 49%; at CYP3A4 [5] it was 95%. In addition, the figures for the half-inhibitory concentration (IC50) (in “cells”; in series [1]; in series [3]) were 0.032 µM, 0.014 µM and 0.0044 µM, respectively. In addition, the CLint scaled at 0.5 h, 2 µM in “in vitro” turned out to be 18 L/h/kg.
As to `C[C@H]1CCCC[C@H]1n1c(=O)[nH]c2cnc3[nH]ccc3c21`, the IC50 stood at 0.11 µM in “cells”, 0.028 µM in series [1], 0.027 µM in series [2] and 0.017 µM in series [3].
For `CC1CCCC(n2c(=O)[nH]c3cnc4[nH]ccc4c32)C1` (centres undefined) the same measures were 1 µM, 0.43 µM, 0.021 µM and 0.023 µM.
For `CC1CCC(n2c(=O)[nH]c3cnc4[nH]ccc4c32)CC1` (centres undefined) the same measures were 0.12 µM, 0.024 µM, 0.042 µM and 0.023 µM.
The matching figures for `CC1(C)CCCCC1n1c(=O)[nH]c2cnc3[nH]ccc3c21` (centres undefined): 0.11 µM, 0.09 µM, 0.069 µM and 0.085 µM.
As for `CC[C@@H]1CCCC[C@@H]1n1c(=O)[nH]c2cnc3[nH]ccc3c21`, the half-inhibitory concentration (IC50) was determined as 0.036 µM in the series “cells”, 0.018 µM in series [1], 0.003 µM in series [2] and 0.0036 µM in series [3]. Also, the CLint scaled at 0.5 h, 2 µM in the series “in vitro” is above 60 L/h/kg.
As for `O=c1[nH]c2cnc3[nH]ccc3c2n1C1CCOCC1`, on CYP3A4 [4], the activity at 30 min, 5 µM came to 90%. In addition, the IC50 in “cells” is 1.4 µM; in series [1] it was 0.52 µM; in series [2] it was 0.27 µM. The CLH entry in the series with Liver microsome is “Stable”.
Take `O=c1[nH]c2cnc3[nH]ccc3c2n1C1CCNCC1`: the results for the IC50 (in “cells”; in series [2]; in series [3]) were 2.8 µM, 1.2 µM and 1.3 µM, respectively.
On to `CS(=O)(=O)N1CCC(n2c(=O)[nH]c3cnc4[nH]ccc4c32)CC1`, for which the results for the IC50 in series [1], in series [2] and in series [3] were 0.14 µM, 0.71 µM and 0.14 µM, respectively.
Regarding `CS(=O)(=O)N1CCC[C@@H](n2c(=O)[nH]c3cnc4[nH]ccc4c32)C1`, the IC50 in the series “cells” is 1.7 µM; in series [1], 0.23 µM; in series [2] it was 0.063 µM; in series [3], 0.082 µM.
Consider `CS(=O)(=O)N1CCC[C@H](n2c(=O)[nH]c3cnc4[nH]ccc4c32)C1`, for which the IC50 was found to be 0.46 µM in series [2] and 0.85 µM in series [3].
With `N#CCC(=O)N1CCC[C@@H](n2c(=O)[nH]c3cnc4[nH]ccc4c32)C1`, the IC50 in the series “cells” was determined as 0.31 µM; in series [1], 0.02 µM; in series [2], 0.028 µM; in series [3], 0.017 µM.
In the case of `O=c1[nH]c2cnc3[nH]ccc3c2n1C1CCCCCC1`, the IC50 in the series “cells” was 0.074 µM; in series [1] it was 0.03 µM; in series [2] it was 0.022 µM; in series [3], 0.023 µM. This molecule yielded an intrinsic metabolic clearance (CLint scaled) at 0.5 h, 2 µM in the series “in vitro” of 16.3 L/h/kg.
For `C[C@@H]1CCN(C(=O)CC#N)C[C@@H]1n1c(=O)[nH]c2cnc3[nH]ccc3c21` (racemic), on CYP3A4 [4], the activity at 30 min, 5 µM came to 86%. Besides, the half-inhibitory concentration (IC50) was found to be 0.036 µM in “cells”, 0.0015 µM in series [1], 0.0011 µM in series [2] and 0.0026 µM in series [3]. Also, the CLH entry in the series on Liver microsome is listed as “Stable”.
Consider `C[C@@H]1CCN(C(=O)CC#N)C[C@@H]1n1c(=O)n(C)c2cnc3[nH]ccc3c21` (racemic), for which the IC50 was determined as 0.158 µM in the series “cells”, 0.029 µM in series [1], 0.005 µM in series [2] and 0.0073 µM in series [3].

One may read the IC50 as the point on the concentration scale where inhibition reaches its midpoint. Low values mean higher potency, high ones lower potency. A word on the CLint scaled: it is the capacity of the preparation to metabolise the compound, expressed as a volume cleared per time. A high value points to faster metabolism.
